Experimental data: ChEMBL document CHEMBL2417375 (Bioorg Med Chem Lett, 2013)

How the values were obtained:
Mu-type opioid receptor [1] = biological target: T1, Mu-type opioid receptor (Mus musculus, UniProt P42866); assay: Displacement of [3H]-naloxone from mouse mu opioid receptor expressed in CHO cells after 1.5 hrs; format: cell-based
Mu-type opioid receptor [2] = biological target: T1, Mu-type opioid receptor; assay: Agonist activity at mouse mu opioid receptor expressed in CHO cells assessed as stimulation of [35S]-GTPgammaS binding after 1.5 hrs; format: functional, cell-based
[3] = biological target: Delta-type opioid receptor (Mus musculus, UniProt P32300); assay: Displacement of [3H]-naltrindole from mouse delta opioid receptor expressed in CHO cells after 1.5 hrs; format: cell-based
Chain of Delta-type opioid receptor (P32300 whole entry): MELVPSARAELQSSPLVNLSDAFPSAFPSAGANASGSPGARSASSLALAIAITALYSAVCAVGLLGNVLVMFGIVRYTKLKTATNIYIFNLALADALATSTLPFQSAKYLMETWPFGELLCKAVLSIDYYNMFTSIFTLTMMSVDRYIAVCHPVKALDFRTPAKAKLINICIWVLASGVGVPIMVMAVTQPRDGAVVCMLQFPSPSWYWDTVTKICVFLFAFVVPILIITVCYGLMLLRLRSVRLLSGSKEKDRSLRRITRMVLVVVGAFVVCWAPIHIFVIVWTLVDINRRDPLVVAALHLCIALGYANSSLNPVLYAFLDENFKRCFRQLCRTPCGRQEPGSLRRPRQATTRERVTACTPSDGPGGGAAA

[4] = biological target: Kappa-type opioid receptor (Mus musculus, UniProt P33534); assay: Displacement of [3H]-diprenorphine from mouse kappa opioid receptor expressed in CHO cells after 1.5 hrs; format: cell-based
Chain of Kappa-type opioid receptor (P33534 whole entry): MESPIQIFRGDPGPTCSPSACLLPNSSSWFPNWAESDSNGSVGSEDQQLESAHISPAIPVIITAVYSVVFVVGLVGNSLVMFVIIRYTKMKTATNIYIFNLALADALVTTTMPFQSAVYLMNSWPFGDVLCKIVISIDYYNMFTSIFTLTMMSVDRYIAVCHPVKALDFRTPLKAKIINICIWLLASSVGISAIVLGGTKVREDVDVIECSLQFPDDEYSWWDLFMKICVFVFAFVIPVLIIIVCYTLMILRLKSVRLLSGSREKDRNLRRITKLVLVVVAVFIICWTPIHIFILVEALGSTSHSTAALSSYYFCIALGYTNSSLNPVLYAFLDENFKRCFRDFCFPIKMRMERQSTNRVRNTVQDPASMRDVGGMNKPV

[5] = biological target: Mu-type opioid receptor (Mus musculus) (UniProt P42866); assay: Agonist activity at mouse mu opioid receptor expressed in CHO cells assessed as stimulation of [35S]-GTPgammaS binding after 1.5 hrs relative to DAMGO; format: functional, cell-based
Chain of Mu-type opioid receptor (Mus musculus) (P42866 whole entry): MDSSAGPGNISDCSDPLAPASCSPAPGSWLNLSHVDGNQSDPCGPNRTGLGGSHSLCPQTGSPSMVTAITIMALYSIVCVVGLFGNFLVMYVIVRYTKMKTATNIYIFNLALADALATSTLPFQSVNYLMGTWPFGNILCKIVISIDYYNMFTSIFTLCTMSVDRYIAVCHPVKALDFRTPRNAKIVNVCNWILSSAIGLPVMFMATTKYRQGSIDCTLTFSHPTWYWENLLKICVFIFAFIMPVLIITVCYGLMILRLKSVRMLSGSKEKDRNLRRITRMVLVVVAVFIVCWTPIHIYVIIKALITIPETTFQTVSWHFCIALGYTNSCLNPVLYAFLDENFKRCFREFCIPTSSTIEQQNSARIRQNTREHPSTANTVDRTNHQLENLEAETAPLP

Mus musculus [6] = species on record: Mus musculus; assay: Selectivity ratio of Ki for mouse delta opioid receptor to Ki for mouse mu opioid receptor
Mus musculus [7] = species on record: Mus musculus; assay: Selectivity ratio of Ki for mouse kappa opioid receptor to Ki for mouse mu opioid receptor

T1 sequence (P42866 whole entry): as above

Compound | Ki (Mu-type opioid receptor [1]) | EC50 (Mu-type opioid receptor [2]) | Ki [3] | Ki [4] | Emax [5] | Ratio Ki (Mus musculus [6]) | Ratio Ki (Mus musculus [7])
Cc1nc(C(=O)N[C@H]2CC[C@@]3(O)[C@H]4Cc5ccc(O)c6c5[C@@]3(CCN4CC3CC3)[C@H]2O6)cc2ccccc12 | 2.1 nM | 7.2 nM | 117 nM | 29.1 nM | 22.2% | – | –
O=C(N[C@H]1CC[C@@]2(O)[C@H]3Cc4ccc(O)c5c4[C@@]2(CCN3CC2CC2)[C@H]1O5)c1nc(Cl)c2ccccc2c1O | 0.73 nM | 1.23 nM | 17.4 nM | 18.3 nM | 19.8% | 24 | 25
O=C(CNC(=O)c1cc2ccccc2cn1)N[C@H]1CC[C@@]2(O)[C@H]3Cc4ccc(O)c5c4[C@@]2(CCN3CC2CC2)[C@H]1O5 | 2.7 nM | 14.1 nM | 9.2 nM | 0.61 nM | 13.9% | 3.4 | 0.2
O=C(N[C@H]1CC[C@@]2(O)[C@H]3Cc4ccc(O)c5c4[C@@]2(CCN3CC2CC2)[C@H]1O5)c1cc2ccccc2c(Cl)n1 | – | – | 79.8 nM | 10.8 nM | – | – | –
CN1Cc2ccccc2C[C@H]1C(=O)N[C@H]1CC[C@@]2(O)[C@H]3Cc4ccc(O)c5c4[C@@]2(CCN3CC2CC2)[C@H]1O5 | 2.9 nM | 19.4 nM | 9.3 nM | 6.76 nM | 24.8% | 3.2 | 2.3
O=C(Cc1cc2ccccc2cn1)N[C@H]1CC[C@@]2(O)[C@H]3Cc4ccc(O)c5c4[C@@]2(CCN3CC2CC2)[C@H]1O5 | 1.2 nM | 4.6 nM | 12.5 nM | 1.1 nM | 18.6% | 10 | 0.9
O=C(N[C@H]1CC[C@@]2(O)[C@H]3Cc4ccc(O)c5c4[C@@]2(CCN3CC2CC2)[C@H]1O5)c1ncc2ccccc2c1O | 0.45 nM | 1.06 nM | 32.8 nM | 4 nM | 20.5% | – | –
O=C(N[C@H]1CC[C@@]2(O)[C@H]3Cc4ccc(O)c5c4[C@@]2(CCN3CC2CC2)[C@H]1O5)c1ncc2ccccc2n1 | 1.11 nM | 6 nM | 78.8 nM | 5.1 nM | 21.6% | 71 | 4.6
O=C(N[C@H]1CC[C@@]2(O)[C@H]3Cc4ccc(O)c5c4[C@@]2(CCN3CC2CC2)[C@H]1O5)c1cc2ccccc2cn1 | – | – | 162 nM | – | – | – | –
O=C(CCc1cc2ccccc2cn1)N[C@H]1CC[C@@]2(O)[C@H]3Cc4ccc(O)c5c4[C@@]2(CCN3CC2CC2)[C@H]1O5 | 0.68 nM | 1.14 nM | 8.4 nM | 1.61 nM | 27.4% | 12 | 2.4
COc1c(C(=O)N[C@H]2CC[C@@]3(O)[C@H]4Cc5ccc(O)c6c5[C@@]3(CCN4CC3CC3)[C@H]2O6)nc(Cl)c2ccccc12 | – | 1.74 nM | 33.9 nM | 22.2 nM | – | – | –
N#Cc1nc(C(=O)N[C@H]2CC[C@@]3(O)[C@H]4Cc5ccc(O)c6c5[C@@]3(CCN4CC3CC3)[C@H]2O6)cc2ccccc12 | 0.99 nM | 3.32 nM | 130 nM | 10.1 nM | 37.5% | 131 | 10
